From article PMC3755765 (ChemMedChem, 2013) come the findings set out here.

Converted amounts (≈) assume the structure as drawn. Where two headings read alike, the source gives them in different places.

One data set deals with T. gondii tachyzoites. The experiment in a line: Parasite tissue culture assay: inhibition of T. gondii tachyzoites in HFF. Format: cell-based, Toxoplasma gondii. The following applies: for Activity in the parasite-based assay: T. gondii tachyzoites; for MIC50 / IC50: Toxoplasma gondii.
The target of a further data set is T1, TgENR (Toxoplasma gondii, UniProt Q6UCJ9).
T1 sequence (Q6UCJ9 28-417): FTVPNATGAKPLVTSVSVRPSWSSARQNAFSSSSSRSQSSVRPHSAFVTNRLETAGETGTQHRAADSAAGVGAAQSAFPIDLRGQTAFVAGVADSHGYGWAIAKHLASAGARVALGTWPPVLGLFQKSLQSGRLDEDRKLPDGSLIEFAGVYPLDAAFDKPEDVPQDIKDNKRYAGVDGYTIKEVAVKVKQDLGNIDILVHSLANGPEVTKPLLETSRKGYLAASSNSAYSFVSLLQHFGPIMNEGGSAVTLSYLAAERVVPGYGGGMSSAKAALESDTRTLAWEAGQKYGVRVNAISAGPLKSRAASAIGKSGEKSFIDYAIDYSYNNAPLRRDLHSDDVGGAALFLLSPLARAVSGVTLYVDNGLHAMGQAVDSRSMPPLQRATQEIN
The experiment in a line: TgENR enzyme assay. Format: biochemical. As to conditions: for Activity in the enzyme-based assay: purified TgENR; for inhibition at 1 µM: read-out: Cpd. conc. [1 μM]/% Inh.: percentage of inhibition of TgENR; for TgENR IC50 fold lower than that of analog 9c: 38 and 54 nM vs 130 nM.

Data set [1] relates to Human Foreskin Fibroblasts (HFF). The experiment in a line: Toxicity for host cells. As to conditions: for Parasite tissue culture assay HFF (HFF toxicity): human foreskin fibroblasts, highest concentration tested 10 μM.
Setting [2] is: 72 h, read-out: Parasite tissue culture assay MIC50.

Turning to `COc1cc(Cn2cc(CCO)nn2)ccc1Oc1ccc(Cl)cc1Cl` [Compound 8d, 2-[1-[4-(2,4-Dichlorophenoxy)-3-methoxybenzyl]-1H-1,2,3-triazol-4-yl]ethanol], in the data set on T. gondii tachyzoites, the “Activity in the parasite-based assay” value is listed as “lack of activity”. Besides, in the data set on T. gondii tachyzoites (setting [2]), the MIC50 (in general, an inhibitory concentration at the 50% level, which refers to growth in some studies and to a panel of isolates in others) was over 10 µM. On TgENR, the “Activity in the enzyme-based assay” value is given as “lack of activity” and the inhibition at 1 µM came to 12%. Also, in data set [1], the “Parasite tissue culture assay HFF (HFF toxicity)” value (“Parasite tissue culture assay HFF” for short) was over 10 µM.
As for `CCCCc1cn(Cc2ccc(Oc3ccc(Cl)cc3Cl)c(O)c2)nn1` [Compound 9a, 5-[(4-Butyl-1H-1,2,3-triazol-1-yl)methyl]-2-(2,4-dichlorophenoxy)phenol], the “Activity in the parasite-based assay” value in the data set with T. gondii tachyzoites is “inactive”. Moreover, the MIC50 in the data set on T. gondii tachyzoites (setting [2]) was over 10 µM. On TgENR, the IC50 is 0.038 µM, the “TgENR IC50 fold lower than that of analog 9c” value is reported as “approximately 3 fold” and the inhibition at 1 µM came to 94%. Besides, the “Parasite tissue culture assay HFF” value in data set [1] was over 10 µM.
Take `Oc1cc(Cn2cc(-c3ccccc3)nn2)ccc1Oc1ccc(Cl)cc1Cl` [Compound 9b, 2-(2,4-Dichlorophenoxy)-5-[(4-phenyl-1H-1,2,3-triazol-1-yl)methyl]phenol]: in the data set with T. gondii tachyzoites, the “Activity in the parasite-based assay” value is “inactive”. For the same molecule, in the data set with T. gondii tachyzoites (setting [2]), the MIC50 is over 10 µM. Further, at TgENR, the IC50 is 0.054 µM, the “TgENR IC50 fold lower than that of analog 9c” value is about 2 fold and the inhibition at 1 µM was determined as 93%. Moreover, the “Parasite tissue culture assay HFF” value in data set [1] was over 10 µM.
As for `CCCCc1cn(Cc2ccc(Oc3ccc(Cl)cc3O)c(Cl)c2)nn1` [Compound 16a, 2-[4-[(4-Butyl-1H-1,2,3-triazol-1-yl)methyl]-2-chlorophenoxy]-5-chlorophenol], the MIC50 in the data set on T. gondii tachyzoites (setting [2]) stood at 0.25 µM (≈ 0.0981 µg/mL). Besides, the IC50 in the data set on T. gondii tachyzoites (read-out: IC50 (MIC50) against Toxoplasma gondii tachyzoites) came to 0.25 µM. On TgENR (43 vs 26 nM), the “TgENR IC50 fold higher than that of 16c” value came to 1.6 fold. Also, at TgENR, the inhibition at 1 µM was determined as 90%. Further, in data set [1], the “Toxicity to the host cells” value was “without apparent toxicity to the host cells” and the “Parasite tissue culture assay HFF” value is over 10 µM.
For `Oc1cc(Cl)ccc1Oc1ccc(Cn2cc(-c3ccccc3)nn2)cc1Cl` [Compound 16b, 5-Chloro-2-[2-chloro-4-[(4-phenyl-1H-1,2,3-triazol-1-yl)methyl]phenoxy]phenol], in the data set on T. gondii tachyzoites, the “Activity in the parasite-based assay” value is “activity comparable to or better than that of triclosan”. For the same molecule, the MIC50 in the data set with T. gondii tachyzoites (setting [2]) is 1 µM (≈ 0.412 µg/mL). Also, the inhibition at 1 µM on TgENR came to 82%. For the same molecule, the “Parasite tissue culture assay HFF” value in data set [1] is over 10 µM.
Turning to `CCCCc1cc(-c2ccc(Oc3ccc(Cl)cc3Cl)c(O)c2)no1` [Compound 20a, 5-(5-Butyl-1,2-oxazol-3-yl)-2-(2,4-dichlorophenoxy)phenol], the “Activity in the parasite-based assay” value with T. gondii tachyzoites is “completely inactive”. For the same molecule, the MIC50 in the data set with T. gondii tachyzoites (setting [2]) is over 10 µM. At TgENR, the “Activity in the enzyme-based assay” value was “completely inactive” and the inhibition at 1 µM amounted to 59%. The “Parasite tissue culture assay HFF” value in data set [1] is over 10 µM.
In the case of `Oc1cc(-c2cc(-c3ccccc3)on2)ccc1Oc1ccc(Cl)cc1Cl` [Compound 20b, 2-(2,4-Dichlorophenoxy)-5-(5-phenyl-1,2-oxazol-3-yl)phenol], the “Activity in the parasite-based assay” value with T. gondii tachyzoites was “completely inactive”. Besides, in the data set with T. gondii tachyzoites (setting [2]), the MIC50 was over 10 µM. In addition, at TgENR, the “Activity in the enzyme-based assay” value was “completely inactive” and the inhibition at 1 µM worked out at 40%. Further, in data set [1], the “Parasite tissue culture assay HFF” value is over 10 µM.
For the molecule `C[Si](C)(C)c1cc(-c2ccc(Oc3ccc(Cl)cc3Cl)c(O)c2)no1` [Compound 20c, 2-(2,4-Dichlorophenoxy)-5-[5-(trimethylsilyl)-1,2-oxazol-3-yl]phenol], the MIC50 in the data set on T. gondii tachyzoites (setting [2]) turned out to be 7 µM (≈ 2.76 µg/mL). For the same molecule, on TgENR, the inhibition at 1 µM came to 25%. Besides, the “Parasite tissue culture assay HFF” value in data set [1] is over 10 µM.
Regarding `CCCCc1cc(-c2ccc(Oc3ccc(Cl)cc3O)c(Cl)c2)no1` [Compound 24a, 2-[4-(5-Butyl-1,2-oxazol-3-yl)-2-chlorophenoxy]-5-chlorophenol], the MIC50 in the data set with T. gondii tachyzoites (setting [2]) was determined as 8 µM (≈ 3.03 µg/mL). Further, at TgENR, the IC50 was 0.018 µM and the inhibition at 1 µM was determined as 92%. Further, the “Parasite tissue culture assay HFF” value in data set [1] is over 10 µM.
As to `Oc1cc(Cl)ccc1Oc1ccc(-c2cc(-c3ccccc3)on2)cc1Cl` [Compound 24b, 5-Chloro-2-[2-chloro-4-(5-phenyl-1,2-oxazol-3-yl)phenoxy]phenol], the MIC50 with T. gondii tachyzoites (setting [2]) is 10 µM (≈ 3.98 µg/mL). On TgENR, the IC50 was 0.028 µM and the inhibition at 1 µM came to 88%. In data set [1], the “Parasite tissue culture assay HFF” value is over 10 µM.
As for `N#Cc1ccc(Oc2ccc(Cl)cc2Cl)c(O)c1` [Compound 27, 4-(2,4-Dichlorophenoxy)-3-hydroxybenzonitrile], in the data set with T. gondii tachyzoites (setting [2]), the MIC50 turned out to be 2 µM (≈ 0.56 µg/mL). The inhibition at 1 µM on TgENR is 97%. Moreover, the “Parasite tissue culture assay HFF” value in data set [1] is over 10 µM.
Take `Cc1cc(C(=O)NCc2ccc(Oc3ccc(Cl)cc3Cl)c(O)c2)no1` [Compound 33, N-[4-(2,4-Dichlorophenoxy)-3-hydroxybenzyl]-5-methyl-1,2-oxazole-3-carboxamide]: in the data set on T. gondii tachyzoites (setting [2]), the MIC50 came to 10 µM (≈ 3.93 µg/mL). The inhibition at 1 µM on TgENR is 96%.
As to `Cc1cc(C(=O)NCc2ccc(Oc3ccc(Cl)cc3O)c(Cl)c2)no1` [Compound 37a, N-[3-Chloro-4-(4-chloro-2-hydroxyphenoxy)benzyl]-5-methyl-1,2-oxazole-3-carboxamide], the “Activity in the parasite-based assay” value in the data set with T. gondii tachyzoites is “activity comparable to or better than that of triclosan”. Besides, the MIC50 with T. gondii tachyzoites (setting [2]) was 5 µM (≈ 1.97 µg/mL). Further, on TgENR, the inhibition at 1 µM was 88%.
For `O=C(NCc1ccc(Oc2ccc(Cl)cc2O)c(Cl)c1)c1cc(-c2ccccc2)on1` [Compound 37b, N-[3-Chloro-4-(4-chloro-2-hydroxyphenoxy)benzyl]-5-phenyl-1,2-oxazole-3-carboxamide], the MIC50 in the data set with T. gondii tachyzoites (setting [2]) is over 10 µM. Moreover, on TgENR, the inhibition at 1 µM was found to be 80%.
As for `O=C(NCc1ccc(Oc2ccc(Cl)cc2O)c(Cl)c1)c1ccc2cc(O)ccc2c1` [Compound 37d, N-[3-Chloro-4-(4-chloro-2-hydroxyphenoxy)benzyl]-6-hydroxynaphthalene-2-carboxamide], the IC50 in the data set with T. gondii tachyzoites (setting [2]) was over 10 µM. At TgENR, the “Activity in the enzyme-based assay” value was “Reasonable activity” and the inhibition at 1 µM came to 89%.
Regarding `CCCCCCNCc1ccc(Oc2ccc(Cl)cc2O)c(Cl)c1` [Compound 41a, 5-Chloro-2-[2-chloro-4-[(hexylamino)methyl]phenoxy]phenol], the “Activity in the parasite-based assay” value with T. gondii tachyzoites is listed as “activity comparable to or better than that of triclosan”. Moreover, the MIC50 in the data set with T. gondii tachyzoites (setting [2]) is 1 µM (≈ 0.368 µg/mL). Further, at TgENR, the “Activity in the enzyme-based assay” value is “completely inactive” and the inhibition at 1 µM worked out at 25%. Further, the “Parasite tissue culture assay HFF” value in data set [1] is over 10 µM.
Consider `Oc1cc(Cl)ccc1Oc1ccc(CNc2ccccc2)cc1Cl` [Compound 41b, 5-Chloro-2-[2-chloro-4-[(phenylamino)methyl]phenoxy]phenol], for which the MIC50 in the data set on T. gondii tachyzoites (setting [2]) was over 10 µM. Moreover, on TgENR, the inhibition at 1 µM was determined as 94%. In data set [1], the “Parasite tissue culture assay HFF” value was over 10 µM.
